From PMC6199744, “Development of Chemical Proteomics for the Folateome and Analysis of the Kinetoplastid Folateome” (ACS Infectious Diseases, 2018)
Like-named read-outs stand apart in the source and are kept apart here.

Key:
Assay type in all cases: binding
[1] = molecular target: T1, HeLa cell extract proteins (Homo sapiens, UniProt O15260)
T1 construct: endogenous in cells; host or cells: HeLa cell extract

[2] = molecular target: T2, HeLa cell extract proteins (Homo sapiens, UniProt P04080)
T2 construct: endogenous in cells; host or cells: HeLa cell extract
T2 sequence (P04080 1-98): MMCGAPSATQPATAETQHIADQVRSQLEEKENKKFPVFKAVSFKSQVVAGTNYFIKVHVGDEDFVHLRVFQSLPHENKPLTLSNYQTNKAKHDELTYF

[3] = molecular target: T3, HeLa cell extract proteins (Homo sapiens, UniProt P27708)
T3 construct: endogenous in cells; host or cells: HeLa cell extract

[4] = molecular target: T4, HeLa cell extract proteins (Homo sapiens, UniProt P33993)
T4 construct: endogenous in cells; host or cells: HeLa cell extract

[5] = molecular target: T5, HeLa cell extract proteins (Homo sapiens, UniProt P52948)
T5 construct: endogenous in cells; host or cells: HeLa cell extract

[6] = molecular target: T6, HeLa cell extract proteins (Homo sapiens, UniProt P61619)
T6 construct: endogenous in cells; host or cells: HeLa cell extract

[7] = molecular target: T7, HeLa cell extract proteins (Homo sapiens, UniProt Q15293)
T7 construct: endogenous in cells; host or cells: HeLa cell extract
T7 sequence (Q15293 30-331): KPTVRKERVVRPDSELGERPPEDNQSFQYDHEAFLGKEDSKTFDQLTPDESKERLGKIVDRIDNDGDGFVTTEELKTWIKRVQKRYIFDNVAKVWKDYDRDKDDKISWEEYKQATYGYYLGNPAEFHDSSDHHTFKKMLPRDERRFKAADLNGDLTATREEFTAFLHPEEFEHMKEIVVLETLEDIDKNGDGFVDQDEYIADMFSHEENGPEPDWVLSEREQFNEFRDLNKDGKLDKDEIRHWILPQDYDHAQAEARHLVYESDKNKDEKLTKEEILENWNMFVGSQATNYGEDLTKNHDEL

[8] = molecular target: T8, HeLa cell extract proteins (Homo sapiens, UniProt Q6YHU6)
T8 construct: endogenous in cells; host or cells: HeLa cell extract

[9] = molecular target: T9, HeLa cell extract proteins (Homo sapiens, UniProt Q8NFH4)
T9 construct: endogenous in cells; host or cells: HeLa cell extract
T9 sequence (Q8NFH4 1-326): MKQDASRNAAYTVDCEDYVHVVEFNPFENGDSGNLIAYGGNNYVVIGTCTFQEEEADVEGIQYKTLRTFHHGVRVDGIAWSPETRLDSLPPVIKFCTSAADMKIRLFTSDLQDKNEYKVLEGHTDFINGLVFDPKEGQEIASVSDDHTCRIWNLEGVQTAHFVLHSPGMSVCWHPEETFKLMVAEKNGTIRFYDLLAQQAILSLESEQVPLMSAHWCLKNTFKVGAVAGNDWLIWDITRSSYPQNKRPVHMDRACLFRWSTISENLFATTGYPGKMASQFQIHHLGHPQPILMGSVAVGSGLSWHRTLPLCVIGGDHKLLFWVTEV

[10] = molecular target: T10, HeLa cell extract proteins (Homo sapiens, UniProt Q96KA5)
T10 construct: endogenous in cells; host or cells: HeLa cell extract
T10 sequence (Q96KA5 1-538): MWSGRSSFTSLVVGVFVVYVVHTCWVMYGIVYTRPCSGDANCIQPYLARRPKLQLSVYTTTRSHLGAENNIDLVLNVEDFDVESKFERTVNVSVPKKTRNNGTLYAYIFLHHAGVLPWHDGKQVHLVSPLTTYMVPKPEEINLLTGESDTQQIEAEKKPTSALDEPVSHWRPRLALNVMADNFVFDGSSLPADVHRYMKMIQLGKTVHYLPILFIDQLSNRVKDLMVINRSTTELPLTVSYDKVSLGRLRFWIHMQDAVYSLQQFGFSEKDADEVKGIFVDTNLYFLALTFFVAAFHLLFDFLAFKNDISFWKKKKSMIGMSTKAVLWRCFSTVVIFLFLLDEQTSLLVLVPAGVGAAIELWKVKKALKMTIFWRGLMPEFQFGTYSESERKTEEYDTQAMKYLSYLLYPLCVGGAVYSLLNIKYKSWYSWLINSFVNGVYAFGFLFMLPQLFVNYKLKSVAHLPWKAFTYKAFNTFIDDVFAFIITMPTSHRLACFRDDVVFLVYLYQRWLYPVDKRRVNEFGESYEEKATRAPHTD

[11] = molecular target: T11, HeLa cell extract proteins (Homo sapiens, UniProt Q99497)
T11 construct: endogenous in cells; host or cells: HeLa cell extract
T11 sequence (Q99497 1-189): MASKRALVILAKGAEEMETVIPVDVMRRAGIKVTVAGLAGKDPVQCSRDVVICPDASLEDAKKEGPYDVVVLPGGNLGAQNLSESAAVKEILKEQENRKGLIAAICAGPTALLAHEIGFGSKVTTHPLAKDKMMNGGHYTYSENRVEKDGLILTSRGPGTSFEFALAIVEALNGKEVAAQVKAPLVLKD

[12] = molecular target: T12, HeLa cell extract proteins (Homo sapiens, UniProt Q99570)
T12 construct: endogenous in cells; host or cells: HeLa cell extract

[13] = molecular target: T13, HeLa cell extract proteins (Homo sapiens, UniProt Q99714)
T13 construct: endogenous in cells; host or cells: HeLa cell extract
T13 sequence (Q99714 1-261): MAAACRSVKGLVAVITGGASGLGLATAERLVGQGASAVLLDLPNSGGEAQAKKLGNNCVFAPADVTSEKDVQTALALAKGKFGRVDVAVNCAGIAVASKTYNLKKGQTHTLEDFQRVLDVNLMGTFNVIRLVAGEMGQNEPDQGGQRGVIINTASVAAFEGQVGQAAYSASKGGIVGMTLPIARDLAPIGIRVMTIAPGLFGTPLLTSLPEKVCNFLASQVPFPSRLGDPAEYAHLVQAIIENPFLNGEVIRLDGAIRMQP

[14] = HeLa, protein DJ-1 (PROTEIN DJ-1.)

T5 sequence (P52948 whole entry): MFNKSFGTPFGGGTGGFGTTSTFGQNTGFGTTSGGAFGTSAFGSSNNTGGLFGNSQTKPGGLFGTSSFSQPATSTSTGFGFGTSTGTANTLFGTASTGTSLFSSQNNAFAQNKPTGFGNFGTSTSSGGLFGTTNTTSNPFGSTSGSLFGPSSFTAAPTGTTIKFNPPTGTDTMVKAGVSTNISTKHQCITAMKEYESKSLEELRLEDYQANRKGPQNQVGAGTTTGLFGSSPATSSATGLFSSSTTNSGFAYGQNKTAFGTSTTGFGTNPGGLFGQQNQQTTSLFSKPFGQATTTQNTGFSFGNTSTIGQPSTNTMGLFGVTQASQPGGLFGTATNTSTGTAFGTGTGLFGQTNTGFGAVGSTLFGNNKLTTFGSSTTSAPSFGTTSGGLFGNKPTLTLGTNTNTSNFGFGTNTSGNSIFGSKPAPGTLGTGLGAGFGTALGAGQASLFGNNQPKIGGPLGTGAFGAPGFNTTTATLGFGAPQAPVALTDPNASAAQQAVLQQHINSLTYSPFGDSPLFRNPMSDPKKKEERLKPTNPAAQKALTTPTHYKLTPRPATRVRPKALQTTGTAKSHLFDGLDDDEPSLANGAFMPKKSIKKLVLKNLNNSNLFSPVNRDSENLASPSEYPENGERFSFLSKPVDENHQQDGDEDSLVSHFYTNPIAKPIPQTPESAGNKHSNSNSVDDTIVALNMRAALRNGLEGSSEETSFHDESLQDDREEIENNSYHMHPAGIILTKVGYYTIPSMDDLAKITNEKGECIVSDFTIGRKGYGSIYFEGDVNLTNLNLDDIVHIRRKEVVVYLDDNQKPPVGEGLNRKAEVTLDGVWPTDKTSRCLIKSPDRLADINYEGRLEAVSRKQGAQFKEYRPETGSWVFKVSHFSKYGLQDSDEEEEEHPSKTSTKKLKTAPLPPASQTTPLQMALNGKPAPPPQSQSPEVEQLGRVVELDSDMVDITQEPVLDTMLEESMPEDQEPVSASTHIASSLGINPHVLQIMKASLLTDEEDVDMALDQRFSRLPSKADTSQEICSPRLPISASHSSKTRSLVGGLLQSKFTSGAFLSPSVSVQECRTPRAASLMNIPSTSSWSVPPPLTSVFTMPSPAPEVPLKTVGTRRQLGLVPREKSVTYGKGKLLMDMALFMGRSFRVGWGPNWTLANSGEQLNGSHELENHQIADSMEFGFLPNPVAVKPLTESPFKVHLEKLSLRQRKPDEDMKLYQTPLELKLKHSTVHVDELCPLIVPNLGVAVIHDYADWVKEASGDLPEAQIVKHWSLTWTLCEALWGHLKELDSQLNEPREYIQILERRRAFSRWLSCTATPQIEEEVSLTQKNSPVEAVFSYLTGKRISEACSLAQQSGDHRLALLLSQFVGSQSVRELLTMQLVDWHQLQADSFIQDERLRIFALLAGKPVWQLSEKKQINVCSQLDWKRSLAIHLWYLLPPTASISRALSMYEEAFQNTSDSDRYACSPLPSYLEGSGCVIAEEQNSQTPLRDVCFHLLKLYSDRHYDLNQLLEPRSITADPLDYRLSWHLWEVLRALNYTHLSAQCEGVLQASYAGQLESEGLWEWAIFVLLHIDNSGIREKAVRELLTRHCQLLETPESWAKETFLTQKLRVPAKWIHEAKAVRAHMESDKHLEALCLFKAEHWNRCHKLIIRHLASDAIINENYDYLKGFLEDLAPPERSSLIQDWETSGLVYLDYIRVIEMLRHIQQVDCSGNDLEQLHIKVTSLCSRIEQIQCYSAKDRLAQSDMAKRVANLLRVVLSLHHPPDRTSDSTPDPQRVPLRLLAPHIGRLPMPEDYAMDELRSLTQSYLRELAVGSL
T1 sequence (O15260 whole entry): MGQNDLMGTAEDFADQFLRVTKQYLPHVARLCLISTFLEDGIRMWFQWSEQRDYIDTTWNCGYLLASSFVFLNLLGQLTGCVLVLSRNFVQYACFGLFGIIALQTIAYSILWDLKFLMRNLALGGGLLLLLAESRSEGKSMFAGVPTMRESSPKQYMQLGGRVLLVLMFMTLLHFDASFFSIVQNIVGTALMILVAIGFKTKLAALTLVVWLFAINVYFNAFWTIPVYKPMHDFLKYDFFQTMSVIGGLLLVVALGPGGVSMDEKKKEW
T3 sequence (P27708 whole entry): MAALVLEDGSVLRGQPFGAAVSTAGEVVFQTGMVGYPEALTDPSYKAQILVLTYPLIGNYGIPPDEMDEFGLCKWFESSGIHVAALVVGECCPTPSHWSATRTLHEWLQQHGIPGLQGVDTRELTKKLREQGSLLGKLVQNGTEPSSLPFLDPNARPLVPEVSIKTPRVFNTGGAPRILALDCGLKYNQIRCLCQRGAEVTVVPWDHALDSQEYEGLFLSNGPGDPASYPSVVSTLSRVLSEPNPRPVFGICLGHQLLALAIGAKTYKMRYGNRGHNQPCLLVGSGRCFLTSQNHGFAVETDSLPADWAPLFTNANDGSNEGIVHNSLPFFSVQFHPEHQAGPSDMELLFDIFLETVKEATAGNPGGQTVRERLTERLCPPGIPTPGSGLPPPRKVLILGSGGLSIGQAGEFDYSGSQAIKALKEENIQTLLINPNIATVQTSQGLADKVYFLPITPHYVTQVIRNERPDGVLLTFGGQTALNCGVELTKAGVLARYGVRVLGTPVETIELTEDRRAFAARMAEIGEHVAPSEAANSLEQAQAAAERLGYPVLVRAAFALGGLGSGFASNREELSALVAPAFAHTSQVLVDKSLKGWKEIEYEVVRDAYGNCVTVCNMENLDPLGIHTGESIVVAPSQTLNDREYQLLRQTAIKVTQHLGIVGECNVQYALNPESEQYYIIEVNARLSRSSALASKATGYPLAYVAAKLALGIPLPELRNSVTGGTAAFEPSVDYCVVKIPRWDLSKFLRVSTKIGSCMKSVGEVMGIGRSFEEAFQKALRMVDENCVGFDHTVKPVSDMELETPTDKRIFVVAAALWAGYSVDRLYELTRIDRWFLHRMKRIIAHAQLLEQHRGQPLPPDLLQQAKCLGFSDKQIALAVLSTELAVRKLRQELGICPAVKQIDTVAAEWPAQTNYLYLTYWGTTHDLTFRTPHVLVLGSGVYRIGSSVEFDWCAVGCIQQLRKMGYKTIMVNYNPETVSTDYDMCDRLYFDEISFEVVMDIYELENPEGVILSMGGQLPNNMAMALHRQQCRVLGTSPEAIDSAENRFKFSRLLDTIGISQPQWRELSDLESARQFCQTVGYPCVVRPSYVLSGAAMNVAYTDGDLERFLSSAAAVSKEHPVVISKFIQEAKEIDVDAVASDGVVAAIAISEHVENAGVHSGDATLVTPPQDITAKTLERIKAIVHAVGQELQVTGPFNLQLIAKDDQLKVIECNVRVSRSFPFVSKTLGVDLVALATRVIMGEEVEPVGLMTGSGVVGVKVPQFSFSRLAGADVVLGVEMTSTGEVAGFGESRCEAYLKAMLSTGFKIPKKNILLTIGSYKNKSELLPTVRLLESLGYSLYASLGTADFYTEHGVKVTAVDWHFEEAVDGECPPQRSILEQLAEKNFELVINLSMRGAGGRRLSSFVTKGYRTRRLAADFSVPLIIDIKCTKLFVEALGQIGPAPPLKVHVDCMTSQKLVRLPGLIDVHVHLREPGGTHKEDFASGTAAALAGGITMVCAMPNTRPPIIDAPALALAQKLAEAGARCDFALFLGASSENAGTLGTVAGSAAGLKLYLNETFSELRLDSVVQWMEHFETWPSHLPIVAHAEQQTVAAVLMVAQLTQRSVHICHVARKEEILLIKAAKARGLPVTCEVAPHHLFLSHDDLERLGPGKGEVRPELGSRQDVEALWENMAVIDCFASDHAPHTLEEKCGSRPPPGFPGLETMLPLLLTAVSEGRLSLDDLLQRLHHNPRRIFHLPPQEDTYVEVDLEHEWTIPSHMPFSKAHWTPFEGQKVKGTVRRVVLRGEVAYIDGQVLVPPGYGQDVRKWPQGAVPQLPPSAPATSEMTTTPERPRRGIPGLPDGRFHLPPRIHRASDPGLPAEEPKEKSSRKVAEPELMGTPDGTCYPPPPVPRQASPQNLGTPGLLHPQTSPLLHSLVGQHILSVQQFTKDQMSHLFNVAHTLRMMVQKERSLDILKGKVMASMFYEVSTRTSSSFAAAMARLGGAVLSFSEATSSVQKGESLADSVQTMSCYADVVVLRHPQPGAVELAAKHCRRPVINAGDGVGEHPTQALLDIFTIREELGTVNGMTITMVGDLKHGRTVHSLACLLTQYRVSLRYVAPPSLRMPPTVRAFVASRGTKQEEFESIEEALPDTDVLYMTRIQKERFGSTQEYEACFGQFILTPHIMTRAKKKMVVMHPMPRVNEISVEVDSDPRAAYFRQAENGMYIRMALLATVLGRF
T6 sequence (P61619 whole entry): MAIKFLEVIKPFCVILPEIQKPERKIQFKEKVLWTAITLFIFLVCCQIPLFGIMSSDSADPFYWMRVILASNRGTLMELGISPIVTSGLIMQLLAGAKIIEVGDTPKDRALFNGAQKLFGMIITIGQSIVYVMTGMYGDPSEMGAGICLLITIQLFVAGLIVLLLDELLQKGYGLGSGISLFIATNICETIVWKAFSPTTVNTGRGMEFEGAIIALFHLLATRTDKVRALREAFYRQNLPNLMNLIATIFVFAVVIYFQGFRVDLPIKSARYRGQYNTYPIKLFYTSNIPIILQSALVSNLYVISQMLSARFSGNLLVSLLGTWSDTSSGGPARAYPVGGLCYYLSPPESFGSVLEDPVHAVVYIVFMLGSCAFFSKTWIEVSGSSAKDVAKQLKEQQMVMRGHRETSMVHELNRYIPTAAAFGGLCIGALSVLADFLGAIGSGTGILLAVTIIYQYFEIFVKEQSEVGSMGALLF

SMILES: Nc1nc2cccc(-c3ccccc3)c2n1Cc1ccc(Cl)c(Cl)c1 [compound 3]
- fold changes relative to vehicle control ([1]; captured protein SURF4, HeLa): 1.03
- fold changes relative to vehicle control ([2]; HeLa, protein CSTB): 1.17
- fold changes relative to vehicle control ([3]; captured protein CAD, HeLa): 1.14
- fold changes relative to vehicle control ([4]; protein MCM7, HeLa): 1.24
- fold changes relative to vehicle control ([5]; captured protein NUP98, HeLa): 1.06
- fold changes relative to vehicle control ([6]; HeLa, protein SEC61A1): 1
- fold changes relative to vehicle control ([7]; captured protein RCN1, HeLa): 0.89
- fold changes relative to vehicle control ([8]; captured protein THADA, HeLa): 1.09
- fold changes relative to vehicle control ([9]; captured protein NUP37, HeLa): 1.01
- fold changes relative to vehicle control ([10]; captured protein CLPTM1L, HeLa): 1.14
- fold changes relative to vehicle control [11, 14]: 0.85 fold
- fold changes relative to vehicle control ([12]; captured protein PIK3R4, HeLa): 0.95
- fold changes relative to vehicle control ([13]; protein HSD17B10, HeLa): 0.93

SMILES: NCCOCCOCC(=O)Nc1nc2ncc(CNc3ccc(C(=O)NC(CCC(=O)O)C(=O)O)cc3)nc2c(=O)[nH]1 (stereo not shown) [compound 6]
- fold changes relative to vehicle control ([1]; HeLa, captured protein SURF4): 0.95
- fold changes relative to vehicle control ([2]; HeLa, protein CSTB): 1.29
- fold changes relative to vehicle control ([3]; protein CAD, HeLa): 1.18
- fold changes relative to vehicle control ([4]; protein MCM7, HeLa): 1.16
- fold changes relative to vehicle control ([5]; HeLa, protein NUP98): 1.21
- fold changes relative to vehicle control ([6]; HeLa, protein SEC61A1): 1.03
- fold changes relative to vehicle control ([7]; HeLa, protein RCN1): 1.11
- fold changes relative to vehicle control ([8]; HeLa, captured protein THADA): 1.11
- fold changes relative to vehicle control ([9]; HeLa, protein NUP37): 0.9
- fold changes relative to vehicle control ([10]; protein CLPTM1L, HeLa): 1.01
- fold changes relative to vehicle control ([11]; HeLa, captured protein DJ-1): 1.36
- fold changes relative to vehicle control ([12]; HeLa, protein PIK3R4): 1.2
- fold changes relative to vehicle control ([13]; HeLa, protein HSD17B10): 0.94

SMILES: Nc1nc2[nH]cc(CCc3ccc(C(=O)N[C@@H](CCC(=O)O)C(=O)O)cc3)c2c(=O)[nH]1 [PTX, pemetrexed]
- fold changes relative to vehicle control [1]: 0.9
- fold changes relative to vehicle control [2]: 1.26
- fold changes relative to vehicle control [3]: 0.52
- fold changes relative to vehicle control [4]: 0.96
- fold changes relative to vehicle control [5]: 1
- fold changes relative to vehicle control [6]: 0.98
- fold changes relative to vehicle control [7]: 1.02
- fold changes relative to vehicle control [8]: 0.98
- fold changes relative to vehicle control [9]: 0.91
- fold changes relative to vehicle control [10]: 0.91
- fold changes relative to vehicle control [11]: 1.28
- fold changes relative to vehicle control [12]: 1.08
- fold changes relative to vehicle control [13]: 0.9

SMILES: Nc1nc2c(c(=O)[nH]1)N(C=O)C(CNc1ccc(C(=O)N[C@@H](CCC(=O)O)C(=O)O)cc1)CN2 (stereo partly shown) [LEU, leucovorin]
- fold changes relative to vehicle control ([1]; HeLa, captured protein SURF4): 0.86
- fold changes relative to vehicle control ([2]; HeLa, protein CSTB): 1.07
- fold changes relative to vehicle control ([3]; protein CAD, HeLa): 1.34
- fold changes relative to vehicle control ([4]; protein MCM7, HeLa): 0.91
- fold changes relative to vehicle control ([5]; HeLa, protein NUP98): 0.93
- fold changes relative to vehicle control ([6]; HeLa, protein SEC61A1): 0.99
- fold changes relative to vehicle control ([7]; HeLa, protein RCN1): 0.91
- fold changes relative to vehicle control ([8]; HeLa, captured protein THADA): 1.06
- fold changes relative to vehicle control ([9]; HeLa, protein NUP37): 0.86
- fold changes relative to vehicle control ([10]; protein CLPTM1L, HeLa): 0.77
- fold changes relative to vehicle control ([11]; HeLa, captured protein DJ-1): 1.1
- fold changes relative to vehicle control ([12]; HeLa, protein PIK3R4): 0.97
- fold changes relative to vehicle control ([13]; HeLa, protein HSD17B10): 0.93

SMILES: CCCCCCOc1ccc(Cc2cnc(N)nc2N)cc1 [compound 1]
- fold changes relative to vehicle control ([1]; captured protein SURF4, HeLa): 0.9
- fold changes relative to vehicle control ([2]; HeLa, protein CSTB): 1.08
- fold changes relative to vehicle control ([3]; captured protein CAD, HeLa): 1.1
- fold changes relative to vehicle control ([4]; protein MCM7, HeLa): 1.06
- fold changes relative to vehicle control ([5]; captured protein NUP98, HeLa): 1.05
- fold changes relative to vehicle control ([6]; HeLa, protein SEC61A1): 1.02
- fold changes relative to vehicle control ([7]; captured protein RCN1, HeLa): 0.9
- fold changes relative to vehicle control ([8]; captured protein THADA, HeLa): 1.06
- fold changes relative to vehicle control ([9]; captured protein NUP37, HeLa): 1.14
- fold changes relative to vehicle control ([10]; captured protein CLPTM1L, HeLa): 0.84
- fold changes relative to vehicle control [11, 14]: 1.34 fold
- fold changes relative to vehicle control ([12]; captured protein PIK3R4, HeLa): 1.03
- fold changes relative to vehicle control ([13]; protein HSD17B10, HeLa): 0.91

SMILES: NCCCNc1ccc(C(=O)NC(CCC(=O)O)C(=O)O)cc1 (stereo not shown) [compound 7]
- fold changes relative to vehicle control ([1]; HeLa, captured protein SURF4): 0.92
- fold changes relative to vehicle control ([2]; HeLa, protein CSTB): 1.24
- fold changes relative to vehicle control ([3]; protein CAD, HeLa): 1.3
- fold changes relative to vehicle control ([4]; protein MCM7, HeLa): 1.14
- fold changes relative to vehicle control ([5]; HeLa, protein NUP98): 1.05
- fold changes relative to vehicle control ([6]; HeLa, protein SEC61A1): 1.06
- fold changes relative to vehicle control ([7]; HeLa, protein RCN1): 1.02
- fold changes relative to vehicle control ([8]; HeLa, captured protein THADA): 1.12
- fold changes relative to vehicle control ([9]; HeLa, protein NUP37): 0.96
- fold changes relative to vehicle control ([10]; protein CLPTM1L, HeLa): 0.9
- fold changes relative to vehicle control ([11]; HeLa, captured protein DJ-1): 1.06
- fold changes relative to vehicle control ([12]; HeLa, protein PIK3R4): 1.08
- fold changes relative to vehicle control ([13]; HeLa, protein HSD17B10): 0.93

SMILES: CCCCCCOc1cccc(Cc2cnc(N)nc2N)c1 [compound 2]
- fold changes relative to vehicle control ([1]; captured protein SURF4, HeLa): 1
- fold changes relative to vehicle control ([2]; HeLa, protein CSTB): 0.99
- fold changes relative to vehicle control ([3]; captured protein CAD, HeLa): 1.01
- fold changes relative to vehicle control ([4]; protein MCM7, HeLa): 1.47
- fold changes relative to vehicle control ([5]; captured protein NUP98, HeLa): 1.11
- fold changes relative to vehicle control ([6]; HeLa, protein SEC61A1): 1.01
- fold changes relative to vehicle control ([7]; captured protein RCN1, HeLa): 1.05
- fold changes relative to vehicle control ([8]; captured protein THADA, HeLa): 1.16
- fold changes relative to vehicle control ([9]; captured protein NUP37, HeLa): 0.98
- fold changes relative to vehicle control ([10]; captured protein CLPTM1L, HeLa): 1.05
- fold changes relative to vehicle control [11, 14]: 2.24 fold
- fold changes relative to vehicle control ([12]; captured protein PIK3R4, HeLa): 1.07
- fold changes relative to vehicle control ([13]; protein HSD17B10, HeLa): 1.31
